{
  "source": "patent US5698571A",
  "about": "“5-HT1F mediated inhibition of neurogenic meningeal extravasation: a method for the treatment of migraine” (Eli Lilly and Company, priority 1994, dated 1997)",
  "key": {"[1]": {"test_system": "migraine", "conditions": "in vivo; cited from earlier work"}, "[2]": {"conditions": "Humphrey et al.; cited from earlier work"}, "[3]": {"test_system": "rabbit saphenous vein", "test": "Rabbit Saphenous Vein Contraction"}, "[4]": {"molecular_target": "T1, 5-HT1F (Homo sapiens, UniProt P30939)", "T1 construct": "expressed in transfected cells; host or cells: Ltk- cells", "test": "Radioligand binding ([3H]5-HT displacement), 5-HT1F"}, "[5]": {"conditions": "in vivo; cited from earlier work"}, "[6]": {"test_system": "neuronal protein extravasation", "test": "Protein extravasation assay (dura, stimulation of trigeminal ganglion)", "assay_type": "in vivo, guinea pig"}, "[7]": {"test_system": "5-HT1F receptor", "conditions": "Weinshank et al., WO93/14201; cited from earlier work"}, "[8]": {"test_system": "neurogenic inflammation", "conditions": "dose similar to that required to treat acute migraine in humans; cited from earlier work"}, "[9]": {"test_system": "vasoconstriction", "conditions": "Goodman and Gilman; cited from earlier work"}, "[10]": {"molecular_target": "T2, 5-HT1F receptor (Homo sapiens, UniProt P30939)", "T2 sequence (P30939 1-366)": "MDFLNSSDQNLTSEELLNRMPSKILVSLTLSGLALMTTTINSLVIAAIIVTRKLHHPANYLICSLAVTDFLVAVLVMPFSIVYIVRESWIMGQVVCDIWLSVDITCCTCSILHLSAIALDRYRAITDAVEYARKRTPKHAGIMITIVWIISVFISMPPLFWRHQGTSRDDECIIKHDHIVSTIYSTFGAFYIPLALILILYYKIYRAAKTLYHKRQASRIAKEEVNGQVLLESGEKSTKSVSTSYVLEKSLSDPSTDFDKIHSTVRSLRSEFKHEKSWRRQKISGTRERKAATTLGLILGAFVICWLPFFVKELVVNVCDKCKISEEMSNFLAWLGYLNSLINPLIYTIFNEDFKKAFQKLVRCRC", "test": "Measurement of cAMP formation: inhibition of forskolin stimulated cAMP in NIH3 T3 cells transfected with the 5-HT1F receptor", "assay_type": "cell-based", "conditions": "for agonist character at the 5-HT1F receptor in the cAMP assay: forskolin stimulated cAMP, transfected NIH3 T3 cells"}, "[11]": {"conditions": "Oryctolagus cuniculus, read-out: Corrected Vasoconstriction EC50"}, "[12]": {"conditions": "Oryctolagus cuniculus; read-out: Rabbit Saphenous Vein Contraction EC50"}, "[13]": {"conditions": "Cavia porcellus, iv, read-out: Inhibition of Protein Extravasation i.v. ID50"}, "[14]": {"conditions": "Oryctolagus cuniculus, read-out: Rabbit Saphenous Vein Contraction (% Max. KCl)"}, "[15]": {"conditions": "i.v., 10 minutes before trigeminal ganglion stimulation; dose inhibiting extravasation by 50%"}},
  "note": "Counter-ions that a name gives are not always drawn. Like-named read-outs stand apart in the source and are kept apart here.",
  "data": [
    {"smiles": "CNS(=O)(=O)Cc1ccc2[nH]cc(CCN(C)C)c2c1.O=C(O)CCC(=O)O", "note": "[Compound I, 3-[2-(dimethylamino)ethyl]-N-methyl-1H-indole-5-methanesulfonamide butane-1,4-dioate (1:1)]", "values": [
      {"measurement": "efficacy in the treatment of migraine", "setting": "[1]", "result": "effective in the treatment of migraine"},
      {"measurement": "agonist at 5-HT1-like receptors, hydrophilicity", "setting": "[2]", "result": "hydrophilic agonist at 5-HT-1-like receptors"},
      {"measurement": "crossing of the blood-brain barrier", "setting": "[2]", "result": "does not cross the blood-brain barrier"},
      {"measurement": "EC50", "setting": "[3]; [11]", "result": 10.3, "unit": "nM"},
      {"measurement": "EC50", "setting": "[3]; [12]", "result": 660, "unit": "nM"},
      {"measurement": "5-HT1F activity (in words)", "setting": "[4]", "result": "significant component of 5-HT1F activity"},
      {"measurement": "contraindications as products of vasoconstrictive activity", "setting": "[5]", "result": "coronary vasospasm, hypertension and angina"},
      {"measurement": "ED50", "setting": "[6]; [13]", "result": "2.6e-05", "unit": "µmol/kg"},
      {"measurement": "Inhibition of Protein Extravasation i.v. ID50", "setting": "[6]; iv", "result": "2.6e-08", "unit": "mmol/kg"},
      {"measurement": "affinity for the 5-HT1F receptor", "setting": "[7]", "result": "high affinity"},
      {"measurement": "blockade of neurogenic inflammation", "setting": "[8]", "result": "blocked"}
    ]},
    {"smiles": "Cn1cc(CCN2CCC(c3c[nH]c4ccc(F)cc34)CC2)cn1", "note": "[Compound II, 5-fluoro-3-<1-<2-<1-methyl-1H-pyrazol-4-yl >ethyl>-4-piperidinyl>-1H-indolehydrochloride]", "values": [
      {"measurement": "EC50", "setting": "[3]; Oryctolagus cuniculus; read-out: Corrected Vasoconstriction EC50", "result": 72.9, "unit": "nM"},
      {"measurement": "Emax", "setting": "[3]; Oryctolagus cuniculus; read-out: Rabbit Saphenous Vein Contraction (% Max. KCl)", "result": 13.7, "unit": "%"},
      {"measurement": "EC50", "setting": "[3]; [12]", "result": 1000, "unit": "nM"},
      {"measurement": "ED50", "setting": "[6]; Cavia porcellus, iv; read-out: Inhibition of Protein Extravasation i.v. ID50", "result": "8e-07", "unit": "µmol/kg"},
      {"measurement": "Inhibition of Protein Extravasation i.v. ID50", "setting": "[6]; guinea pig, in vivo, iv", "result": "8e-10", "unit": "mmol/kg"}
    ]},
    {"smiles": "Oc1ccc2[nH]cc(C3CCNCC3)c2c1", "note": "[Compound III, 5-hydroxy-3-(4-piperidinyl)-1-H-indole oxalate]", "values": [
      {"measurement": "ED50", "setting": "[6]; [13]", "result": "8.9e-06", "unit": "µmol/kg"}
    ]},
    {"smiles": "CCN(CC)C1CCc2cccc(Cl)c2C1.Cl", "note": "(centres unmarked) [Compound IV, 8-chloro-2-diethylamino-1,2,3,4-tetrahydronaphthalene hydrochloride]", "values": [
      {"measurement": "EC50", "setting": "[3]; [11]", "result": 1.49, "unit": "nM"},
      {"measurement": "Emax", "setting": "[3]; [14]", "result": 67.2, "unit": "%"},
      {"measurement": "EC50", "setting": "[3]; [12]", "result": 1000, "unit": "nM"},
      {"measurement": "5-HT1F activity (in words)", "setting": "[4]", "result": "significant component of 5-HT1F activity"},
      {"measurement": "ED50", "setting": "[6]; [13]", "result": 0.00012, "unit": "µmol/kg"},
      {"measurement": "Inhibition of Protein Extravasation i.v. ID50", "setting": "[6]; [15]", "result": "1.2e-07", "unit": "mmol/kg"}
    ]},
    {"smiles": "CN(C)C1CCc2[nH]c3ccc(O)cc3c2C1", "note": "(centres unmarked) [Compound V, 6-hydroxy-3-dimethylamino-1,2,3,4-tetrahydrocarbazole]", "values": [
      {"measurement": "EC50", "setting": "[3]; [11]", "result": "> 8030", "unit": "nM"},
      {"measurement": "Emax", "setting": "[3]; [14]", "result": 12.4, "unit": "%"},
      {"measurement": "EC50", "setting": "[3]; Oryctolagus cuniculus, read-out: Rabbit Saphenous Vein Contraction EC50", "result": "> 100000", "unit": "nM"},
      {"measurement": "ED50", "setting": "[6]; [13]", "result": "8.7e-06", "unit": "µmol/kg"},
      {"measurement": "Inhibition of Protein Extravasation i.v. ID50", "setting": "[6]; [15]", "result": "8.7e-09", "unit": "mmol/kg"}
    ]},
    {"smiles": "CN1C[C@H](C(=O)N[C@]2(C)O[C@@]3(O)[C@@H]4CCCN4C(=O)[C@H](Cc4ccccc4)N3C2=O)C[C@@H]2c3cccc4[nH]cc(c34)C[C@H]21", "note": "[Dihydroergotamine]", "values": [
      {"measurement": "vasoconstrictor activity", "setting": "[9]", "result": "potent vasoconstrictor"},
      {"measurement": "agonist character at the 5-HT1F receptor in the cAMP assay", "setting": "[10]", "result": "partial agonist"},
      {"measurement": "cAMP assay Emax at the 5-HT1F receptor", "setting": "[10]; percent of maximal effect of serotonin, forskolin 10 μM", "result": 49.5, "unit": "%"},
      {"measurement": "ED50", "setting": "[6]; [13]", "result": "2.43e-05", "unit": "µmol/kg"},
      {"measurement": "inhibition of neuronal protein extravasation (in words)", "setting": "[6]; i.v.", "result": "fully effective inhibitor"},
      {"measurement": "ratio of extravasation in the dura, stimulated side compared to unstimulated side", "setting": "[6]; i.v.; saline controls approximately 2.0 in rats, 1.8 in guinea pigs", "result": 1.0}
    ]},
    {"smiles": "NCCc1c[nH]c2ccc(O)cc12", "note": "[serotonin]", "values": [
      {"measurement": "agonist character at the 5-HT1F receptor in the cAMP assay", "setting": "[10]", "result": "maximal effect"}
    ]}
  ]
}
